Measured values from PMC10281575, “PfCRT mutations conferring piperaquine resistance in falciparum malaria shape the kinetics of quinoline drug binding and transport” (PLOS Pathogens, 2023).
Several values for one entry are separate records, joined by “and”; a condition that tells them apart may be missing. Identical values can stand only once.

How the values were obtained:
[1] = system: Dd2^3D7crt parasites; set-up: method as in Okombo et al. (2022); conditions: ref Okombo et al. (2022); cited from earlier work
[2] = biological target: T1, PfCRT^Dd2 (Plasmodium falciparum, UniProt Q8IBZ9, A220S/I356T/K76T/M74I/N326S/N75E/Q271E/R371I); assay: Radiolabeled drug uptake (transport assay) in Xenopus laevis oocytes expressing PfCRT^Dd2; format: cell-based; set-up: expressed in transfected cells; host or cells: Xenopus laevis oocytes injected with in vitro transcribed RNA (pSP64T)
T1 sequence (Q8IBZ9 1-424 M74I/N75E/K76T/A220S/Q271E/N326S/I356T/R371I): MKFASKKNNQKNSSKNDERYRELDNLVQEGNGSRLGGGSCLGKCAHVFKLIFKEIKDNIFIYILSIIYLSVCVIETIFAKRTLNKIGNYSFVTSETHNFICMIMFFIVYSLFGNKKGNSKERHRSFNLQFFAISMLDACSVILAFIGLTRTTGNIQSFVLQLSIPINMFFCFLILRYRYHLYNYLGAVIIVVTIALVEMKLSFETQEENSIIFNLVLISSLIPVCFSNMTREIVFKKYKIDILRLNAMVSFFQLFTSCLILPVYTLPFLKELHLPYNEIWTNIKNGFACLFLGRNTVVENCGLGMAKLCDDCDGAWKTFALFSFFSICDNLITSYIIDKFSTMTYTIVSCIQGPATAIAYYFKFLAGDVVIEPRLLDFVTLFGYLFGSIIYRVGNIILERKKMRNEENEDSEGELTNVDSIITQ
Description: The two kinetic parameters were derived by fitting the Michaelis-Menten equation to the kinetic data (Table 1).
Adult female X. laevis frogs (purchased from NASCO) were anesthetized by submersion in a solution of 0.3% (w/v) 3-amino benzoate methanesulfonate for 15 min. Sections of the ovary were surgically removed and placed in Ca^2+-free ND96 buffer supplemented with 0.1% collagenase D (w/v; Roche), 0.5% BSA (w/v) and 9 mM Na2HPO4 at 18°C for 14–16 h while gently shaking. The oocytes were then washed several times with ND96 buffer (5 mM HEPES, pH 7.5, 96 mM NaCl, 2 mM KCl, 1.8 mM CaCl2, 1 mM MgCl2), supplemented with […] gentamycin. Healthy-looking stage V-VI oocytes were manually selected and randomly grouped for injection. A codon-optimized coding sequence of PfCRT was subcloned into the pSP64T expression vector and subsequently linearized using the restriction endonuclease BamHI or SalI (New England Biolabs GmbH). RNA for injection was transcribed in vitro using the mMESSAGE mMACHINE SP6 Transcription kit (Ambion), diluted with nuclease-free water to a final concentration of 0.6 μg/μL and stored at -80°C. RNA was injected using precision-bore glass capillary tubes (3.5-inch glass capillaries; Drummond Scientific Co.), which were pulled on a vertical puller (P-87 Flaming/Brown micropipette puller, Sutter Instrument Co.) and graduated. The micropipettes were connected to a microinjector (Nanoject II Auto-Nanoliter Injector, Drummond Scientific Co.). Injection was conducted under stereomicroscopic control. 50 nL of nuclease-free water alone (control oocytes) or 50 nL of nuclease-free water containing 30 ng of RNA was injected per oocyte. Injected oocytes were kept for 72 h at 18°C in ND96 buffer with two daily buffer changes before being used for further experiments.
Drug transport assays were performed as previously described. Briefly, measurements of radiolabeled drug uptake were made over 1 h, unless otherwise specified. […] Where specified, one or more unlabeled drugs were also present at the indicated concentrations. […] The uptake assays were terminated by removing the oocytes from the reaction medium and washing them three times with 2 mL of ice-cold ND96 buffer. Each oocyte was transferred to a separate scintillation vial and lysed by the addition of 200 μL of a 5% SDS solution. The radioactivity in the sample was measured using a liquid scintillation analyser Tri-Carb 4910 TR (PerkinElmer). Water-injected oocytes were analyzed in parallel as a negative control. The buffer from each condition was measured in duplicate in parallel to each experiment to transform counts per minute into pmol of drug. Drug uptake attributable to PfCRT was determined by subtracting the background uptake from water-injected oocytes from that of PfCRT-expressing oocytes. In all cases, at least three independent experiments were performed on oocytes from different frogs, and for each condition in an experiment, measurements were made from 10 oocytes per treatment.

[3] = 50 μM PPQ, pH 6.0, total uptake, one value per biological replicate
[4] = 50 μM PPQ, pH 6.0, water-injected uptake subtracted, per replicate
[5] = 60 min, pH 6, per biological replicate

## Clc1ccc2c(N3CCN(CCCN4CCN(c5ccnc6cc(Cl)ccc56)CC4)CC3)ccnc2c1 [PPQ, piperaquine]
[1]
  drug accumulation ratio: 2000 fold
[2]; 10 µM PPQ, single replicates
  PfCRTDd2-mediated PPQ uptake at 10 µM PPQ: 7.56 pmol oocyte-1 h-1 and 10.37 pmol oocyte-1 h-1 and 9.52 pmol oocyte-1 h-1
[2]; [3]
  PfCRTDd2 PPQ uptake at 10 min: 37.95 pmol oocyte-1 and 17.31 pmol oocyte-1 and 66.26 pmol oocyte-1 and 58.58 pmol oocyte-1 and 53.50 pmol oocyte-1 and 34.40 pmol oocyte-1
  PfCRTDd2 PPQ uptake at 30 min: 69.53 pmol oocyte-1 and 108.95 pmol oocyte-1 and 50.26 pmol oocyte-1
  PfCRTDd2 PPQ uptake at 60 min: 123.14 pmol oocyte-1 and 94.65 pmol oocyte-1 and 103.77 pmol oocyte-1 and 219.78 pmol oocyte-1 and 140.45 pmol oocyte-1 and 145.26 pmol oocyte-1
  PfCRTDd2 PPQ uptake at 90 min: 183.05 pmol oocyte-1 and 183.06 pmol oocyte-1 and 147.41 pmol oocyte-1
  PfCRTDd2 PPQ uptake at 120 min: 118.72 pmol oocyte-1 and 197.79 pmol oocyte-1 and 316.81 pmol oocyte-1 and 143.54 pmol oocyte-1 and 477.33 pmol oocyte-1
  PfCRTDd2 PPQ uptake at 180 min: 167.85 pmol oocyte-1 and 274.70 pmol oocyte-1 and 265.00 pmol oocyte-1
[2]; [4]
  PfCRTDd2-mediated PPQ uptake at 10 min: 17.92 pmol oocyte-1 and 6.16 pmol oocyte-1 and 19.07 pmol oocyte-1 and 16.58 pmol oocyte-1 and 10.50 pmol oocyte-1 and 10.36 pmol oocyte-1
  PfCRTDd2-mediated PPQ uptake at 30 min: 29.61 pmol oocyte-1 and 27.31 pmol oocyte-1 and 14.01 pmol oocyte-1
  PfCRTDd2-mediated PPQ uptake at 60 min: 28.14 pmol oocyte-1 and 21.87 pmol oocyte-1 and 89.78 pmol oocyte-1 and 46.28 pmol oocyte-1 and 30.01 pmol oocyte-1 and 33.33 pmol oocyte-1
  PfCRTDd2-mediated PPQ uptake at 90 min: 41.43 pmol oocyte-1 and 74.11 pmol oocyte-1 and 31.93 pmol oocyte-1
  PfCRTDd2-mediated PPQ uptake at 120 min: 30.25 pmol oocyte-1 and 19.89 pmol oocyte-1 and 85.94 pmol oocyte-1 and 81.35 pmol oocyte-1 and 70.65 pmol oocyte-1
  PfCRTDd2-mediated PPQ uptake at 180 min: 32.52 pmol oocyte-1 and 76.65 pmol oocyte-1 and 72.50 pmol oocyte-1
[2]; 50 µM PPQ, single replicates
  PfCRTDd2-mediated PPQ uptake at 50 µM PPQ: 28.14 pmol oocyte-1 h-1 and 21.87 pmol oocyte-1 h-1 and 89.78 pmol oocyte-1 h-1 and 46.28 pmol oocyte-1 h-1 and 30.01 pmol oocyte-1 h-1 and 33.33 pmol oocyte-1 h-1 and 10.90 pmol oocyte-1 h-1
[2]; 100 µM PPQ, single replicates
  PfCRTDd2-mediated PPQ uptake at 100 µM PPQ: 59.97 pmol oocyte-1 h-1 and 45.22 pmol oocyte-1 h-1 and 64.52 pmol oocyte-1 h-1
[2]; 200 µM PPQ, single replicates
  PfCRTDd2-mediated PPQ uptake at 200 µM PPQ: 87.13 pmol oocyte-1 h-1 and 109.05 pmol oocyte-1 h-1 and 57.84 pmol oocyte-1 h-1
[2]; 300 µM PPQ, single replicates
  PfCRTDd2-mediated PPQ uptake at 300 µM PPQ: 90.42 pmol oocyte-1 h-1 and 110.91 pmol oocyte-1 h-1 and 77.44 pmol oocyte-1 h-1
[2]; 400 µM PPQ, single replicates
  PfCRTDd2-mediated PPQ uptake at 400 µM PPQ: 113.37 pmol oocyte-1 h-1 and 109.88 pmol oocyte-1 h-1 and 74.49 pmol oocyte-1 h-1
[2]; 500 µM PPQ, single replicates
  PfCRTDd2-mediated PPQ uptake at 500 µM PPQ: 118.94 pmol oocyte-1 h-1 and 82.44 pmol oocyte-1 h-1 and 112.35 pmol oocyte-1 h-1
[2]; [5]
  PfCRTDd2-mediated PPQ uptake at 10 µM PPQ: 7.56 pmol oocyte-1 h-1 and 10.37 pmol oocyte-1 h-1 and 9.52 pmol oocyte-1 h-1
  PfCRTDd2-mediated PPQ uptake at 50 µM PPQ: 33.33 pmol oocyte-1 h-1 and 10.9 pmol oocyte-1 h-1 and 28.14 pmol oocyte-1 h-1 and 21.87 pmol oocyte-1 h-1 and 89.78 pmol oocyte-1 h-1 and 46.28 pmol oocyte-1 h-1 and 30.01 pmol oocyte-1 h-1
  PfCRTDd2-mediated PPQ uptake at 100 µM PPQ: 59.97 pmol oocyte-1 h-1 and 45.22 pmol oocyte-1 h-1 and 64.52 pmol oocyte-1 h-1
  PfCRTDd2-mediated PPQ uptake at 200 µM PPQ: 87.13 pmol oocyte-1 h-1 and 109.05 pmol oocyte-1 h-1 and 57.84 pmol oocyte-1 h-1
  PfCRTDd2-mediated PPQ uptake at 300 µM PPQ: 90.42 pmol oocyte-1 h-1 and 110.91 pmol oocyte-1 h-1 and 77.44 pmol oocyte-1 h-1
  PfCRTDd2-mediated PPQ uptake at 400 µM PPQ: 113.37 pmol oocyte-1 h-1 and 109.88 pmol oocyte-1 h-1 and 74.49 pmol oocyte-1 h-1
  PfCRTDd2-mediated PPQ uptake at 500 µM PPQ: 118.94 pmol oocyte-1 h-1 and 82.44 pmol oocyte-1 h-1 and 112.35 pmol oocyte-1 h-1
[2]; Michaelis-Menten fit, 10-500 μM drug, 60 min, pH 6
  Vmax, maximal velocity of drug transport: 131 ± 3 pmol oocyte^-1 h^-1 and 259.88 pmol oocyte^-1 h^-1
[2]; Michaelis-Menten fit, 10-500 μM drug, 60 min, pH 6, read-out: KM, Michaelis constant
  Km: 125 ± 9 µM
